The text below walks through data of paper PMC2248166, “Quantitative peptide binding motifs for 19 human and mouse MHC class I molecules derived using positional scanning combinatorial peptide libraries” (Immunome Research, 2008).

Common to all, as to assay type: binding
Test [1] has as its target HLA B*1501 (Homo sapiens, UniProt P01889, A329T/A93T/A95T/C349S/D201E/D98Y/E187L/E204Q/E69M/E70A/K202T/N87E/Q94N/R155S/R180W/S121R/S35A/S48A/V306I/V36M/Y140S/Y91S). Kind of test: biochemical.
The target in test [2] is HLA B*5101 (Homo sapiens, UniProt P01889, A329T/A93T/A95T/C349S/D138N/D201E/D98Y/E187L/E204Q/E69T/G107R/I218V/K202T/L105A/L119W/N104I/Q94N/R106L/R155S/R180L/S101N/S121T/S35A/S48A/V306I/V36M/Y195H/Y91F).
Test [3] has as its target HLA B*0801 (Homo sapiens, UniProt P01889, A93T/A95T/D138N/E176V/E187T/K202T/Q94N/R180D/S35A/V36M/Y33D/Y91F). Description: biochemical.
Test [4] addresses H-2 D^d (Mus musculus, UniProt P01900).
The target in test [5] is HLA A*6802 (Homo sapiens, UniProt P04439, A269V/D140Y/D185E/E176V/E277Q/E87N/F33Y/G231S/I121R/I166T/I218V/L180W/L300P/L318F/N151K/P208A/P217A/Q86R/R138H/R169H/S129P/T345S/V36M).
Test [6] deals with H-2 K^d (Mus musculus, UniProt P01902).
The target of test [7] is HLA B*5802 (Homo sapiens, UniProt P01889, A329T/C349S/D201E/D98Y/E176V/E187L/E204Q/E69T/G107R/I218V/I90N/K202T/L105A/N104I/N87E/Q89R/Q94S/R106L/R155S/R180L/R86G/S101N/S121W/S35A/S48A/V127L/V306I/V36M/Y140S/Y91M).
The target in test [8] is HLA A*3001 (Homo sapiens, UniProt P04439, D140H/D185E/E176W/F33S/G80R/H175R/K168Q/R138E/R41S). Description: biochemical.
Test [9] has as its target HLA B*3501 (Homo sapiens, UniProt P01889, A329T/A93T/A95T/C349S/D201E/D98Y/E176V/E187L/E204Q/E69T/I218V/K202T/L119I/Q94N/R155S/R180L/S121R/S35A/S48A/T118I/V127L/V306I/V36M/Y140S/Y91F).
Test [10] concerns the target HLA B*5401 (Homo sapiens, UniProt P01889, A329T/C349S/D138N/D201E/E176V/E187T/E204Q/E69G/I76V/K202T/L119W/R155S/R180L/S121T/S35A/S48A/V127L/V306I/V36M/Y140L).
The target in test [11] is HLA B*5801 (Homo sapiens, UniProt P01889, A329T/C349S/D201E/D98Y/E176V/E187L/E204Q/E69T/G107R/I218V/I90N/K202T/L105A/L119I/N104I/N87E/Q89R/Q94S/R106L/R155S/R180L/R86G/S101N/S121R/S35A/S48A/T118I/V127L/V306I/V36M/Y140S/Y91M).
Test [12] addresses HLA A*3201 (Homo sapiens, UniProt P04439, A270S/D101S/D185E/E176V/E277Q/F133L/G103R/G107R/G231S/H175R/I121M/I218V/I322F/K168Q/L105A/L300P/L318F/M331R/P208A/P217A/Q94H/R106L/R138Q/S129P/T104I/T323A/T345S/V100E/V321M/V358M). Description: biochemical.
Test [13] concerns the target HLA B*5301 (Homo sapiens, UniProt P01889, A329T/A93T/A95T/C349S/D201E/D98Y/E176V/E187L/E204Q/E69T/G107R/I218V/K202T/L105A/L119I/N104I/Q94N/R106L/R155S/R180L/S101N/S121R/S35A/S48A/T118I/V127L/V306I/V36M/Y140S/Y91F).
Test [14] concerns the target H-2 K^k (Mus musculus, UniProt P04223).
In test [15] the target is HLA B*1503 (Homo sapiens, UniProt P01889, A329T/A93T/A95T/C349S/D201E/D98Y/E187L/E204Q/K202T/N87E/Q94N/R155S/R180L/S121R/S35A/V306I/V36M/Y140S/Y91S). Kind of test: biochemical.
The target of test [16] is H-2 D^b (Mus musculus, UniProt P01899).
H-2 D^b, sequence (P01887 21-119): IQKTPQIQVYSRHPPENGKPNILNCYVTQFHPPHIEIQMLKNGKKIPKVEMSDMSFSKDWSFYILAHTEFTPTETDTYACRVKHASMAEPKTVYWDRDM
H-2 D^b, sequence (P01899 25-362): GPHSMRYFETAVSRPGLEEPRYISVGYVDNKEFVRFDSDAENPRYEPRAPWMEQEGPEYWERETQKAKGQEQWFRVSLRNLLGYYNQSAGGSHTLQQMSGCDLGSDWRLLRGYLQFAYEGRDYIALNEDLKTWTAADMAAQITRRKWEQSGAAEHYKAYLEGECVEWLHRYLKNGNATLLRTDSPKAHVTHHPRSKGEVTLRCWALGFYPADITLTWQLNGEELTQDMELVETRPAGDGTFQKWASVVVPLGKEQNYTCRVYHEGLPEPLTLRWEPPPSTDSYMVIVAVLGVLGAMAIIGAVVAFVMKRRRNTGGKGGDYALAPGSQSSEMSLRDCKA

H-2 K^d, sequence (P01887 21-119): as the sequence (P01887 21-119) above
H-2 K^d, sequence (P01902 22-368): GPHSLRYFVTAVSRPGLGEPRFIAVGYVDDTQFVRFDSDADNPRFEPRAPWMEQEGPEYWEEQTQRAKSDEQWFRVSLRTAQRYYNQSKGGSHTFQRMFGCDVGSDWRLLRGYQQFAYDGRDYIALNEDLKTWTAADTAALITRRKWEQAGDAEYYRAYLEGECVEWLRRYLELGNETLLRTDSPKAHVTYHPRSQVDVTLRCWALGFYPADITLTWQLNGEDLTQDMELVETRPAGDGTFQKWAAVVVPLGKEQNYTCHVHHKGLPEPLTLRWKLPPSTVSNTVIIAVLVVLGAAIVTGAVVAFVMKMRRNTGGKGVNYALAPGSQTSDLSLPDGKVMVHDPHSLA
H-2 K^k, sequence (P01887 21-119): as the sequence (P01887 21-119) above
H-2 K^k, sequence (P04223 22-369): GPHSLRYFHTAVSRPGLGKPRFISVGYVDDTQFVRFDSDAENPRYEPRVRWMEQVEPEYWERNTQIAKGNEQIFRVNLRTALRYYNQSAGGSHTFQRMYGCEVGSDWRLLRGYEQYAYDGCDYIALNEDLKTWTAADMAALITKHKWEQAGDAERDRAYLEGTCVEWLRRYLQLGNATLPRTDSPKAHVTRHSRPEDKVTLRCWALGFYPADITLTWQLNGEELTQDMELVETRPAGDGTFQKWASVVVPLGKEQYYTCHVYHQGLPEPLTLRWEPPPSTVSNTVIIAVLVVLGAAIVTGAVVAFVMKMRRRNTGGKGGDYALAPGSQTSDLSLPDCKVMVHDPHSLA
H-2 D^d, sequence (P01900 whole entry, looked up): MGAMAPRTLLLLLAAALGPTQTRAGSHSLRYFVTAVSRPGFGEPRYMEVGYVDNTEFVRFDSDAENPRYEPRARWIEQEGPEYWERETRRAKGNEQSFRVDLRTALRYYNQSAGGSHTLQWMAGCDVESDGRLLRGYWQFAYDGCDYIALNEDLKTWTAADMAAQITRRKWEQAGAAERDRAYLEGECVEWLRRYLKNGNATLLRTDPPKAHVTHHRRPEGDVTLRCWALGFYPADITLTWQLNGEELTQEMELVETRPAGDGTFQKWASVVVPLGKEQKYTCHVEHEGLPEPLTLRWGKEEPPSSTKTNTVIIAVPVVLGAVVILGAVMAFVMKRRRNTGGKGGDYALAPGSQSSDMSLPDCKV

On to XXXEXXXXX [3064.0064], for which the “Normalized average relative binding affinity(ARB)” value in test [1] came to 0.27; in test [2], 0.46; in test [3], 0.24; in test [4], 0.38; in test [5] it was 0.14; in test [6], 0.18. Also, the “Normalized average relative binding affinity(ARB)” value is 0.18 in test [7]; 0.34 in test [8]; 0.087 in [9]; 0.15 in test [10]; 0.21 in [11]; 0.36 in test [12]. Besides, the “Normalized average relative binding affinity(ARB)” value in test [13] is recorded as 0.24; in [14], 0.41; in [15], 0.25; in test [16], 0.35.
As for XXXFXXXXX [3064.0065], the “Normalized average relative binding affinity(ARB)” value worked out at 0.42 in test [1]; 0.64 in test [2]; 0.55 in test [3]; 0.96 in test [4]; 0.74 in test [5]; 0.098 in test [6]. Besides, the “Normalized average relative binding affinity(ARB)” value in test [7] amounted to 0.45; in test [8] it was 1.0; in test [9] it was 0.10; in [10], 0.31; in test [11], 0.31; in test [12] it was 1.0. Further, the “Normalized average relative binding affinity(ARB)” value in test [13] was determined as 0.21; in test [14] it was 0.38; in test [15] it was 0.41; in test [16], 0.38.
Turning to XXXGXXXXX [3064.0066], the “Normalized average relative binding affinity(ARB)” value in [1] turned out to be 0.23; in [2], 0.47; in test [3], 0.063; in [4], 0.17; in [5], 0.26; in test [6] it was 0.14. For the same sequence, the “Normalized average relative binding affinity(ARB)” value came to 0.15 in test [7]; 0.50 in test [8]; 0.17 in test [9]; 0.062 in test [10]; 0.21 in [11]; 0.33 in [12]. Further, the “Normalized average relative binding affinity(ARB)” value in [13] was determined as 0.18; in [14], 0.19; in test [15], 0.19; in [16], 0.088.
Turning to XXXHXXXXX [3064.0067], the “Normalized average relative binding affinity(ARB)” value in test [1] is 0.19; in [2], 0.18; in [3] it was 0.26; in [4] it was 0.53; in test [5] it was 0.30; in test [6] it was 0.22. In addition, the “Normalized average relative binding affinity(ARB)” value in test [7] was 0.32; in [8], 0.45; in test [9] it was 0.16; in test [10], 0.21; in test [11], 0.40; in [12], 0.32. Besides, the “Normalized average relative binding affinity(ARB)” value in test [13] is 0.089; in test [14] it was 0.13; in test [15] it was 0.29; in test [16] it was 0.29.
Turning to XXXIXXXXX [3064.0068], the “Normalized average relative binding affinity(ARB)” value is 0.27 in test [1]; 1.0 in [2]; 0.38 in test [3]; 0.79 in [4]; 0.088 in [5]; 0.22 in test [6]. Besides, the “Normalized average relative binding affinity(ARB)” value is given as 0.33 in [7]; 0.34 in [8]; 1.0 in [9]; 0.16 in test [10]; 0.23 in [11]; 0.15 in test [12]. Also, the “Normalized average relative binding affinity(ARB)” value in test [13] was 0.18; in test [14], 0.39; in [15], 0.26; in [16] it was 0.87.
For the sequence XXXKXXXXX [3064.0069], the “Normalized average relative binding affinity(ARB)” value is reported as 0.43 in test [1]; 0.90 in test [2]; 0.52 in test [3]; 0.39 in [4]; 0.095 in [5]; 0.23 in test [6]. In addition, the “Normalized average relative binding affinity(ARB)” value is listed as 0.55 in test [7]; 0.32 in test [8]; 0.097 in test [9]; 0.42 in test [10]; 0.44 in test [11]; 0.39 in test [12]. Besides, the “Normalized average relative binding affinity(ARB)” value worked out at 0.12 in test [13], 0.26 in test [14], 0.30 in test [15] and 0.43 in test [16].
